Assay results from patent US6290974A, “Protein ingredient for carrying lipophilic nutrients” (priority 1998, dated 2001).
Like-named read-outs stand apart in the source and are kept apart here. Values belong to the compound of their own block, whether it stands above or below them.

Experiments:
β-lactoglobulin (β-Lg) [1] = target: T1, β-lactoglobulin (β-Lg) (Bos taurus, UniProt P02754); experiment: Fluorescence titration of β-Lg with ligands (Equation [1]; Kd and n); format: binding; details: for n, Table 2: β-Lg titration as in Example 3
T1 construct: Isolation of β-Lg from Whey; from tissue; host or cells: whey (milk), purified by bioselective adsorption on N-retinyl-Celite
T1 sequence (P02754 17-178): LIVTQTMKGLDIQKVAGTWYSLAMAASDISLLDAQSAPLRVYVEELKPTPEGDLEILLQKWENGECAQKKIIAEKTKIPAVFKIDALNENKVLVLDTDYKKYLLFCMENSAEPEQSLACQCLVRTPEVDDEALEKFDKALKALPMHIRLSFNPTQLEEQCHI
Experimental: (§1) Fluorescence spectra were recorded at 23 ° C. with a System 3 Scanning Spectrofluorometer (Optical Technology Devices, Inc., Elmsford, N.Y.) using the ratio mode. Excitation and emission spectra were obtained with 1 μM solutions of β-Lg in 50 mM sodium phosphate, pH 7.0, both in the presence and absence of 2 μM concentrations of the various ligands. Titration of β-Lg with the various ligands was quantified by measuring the fluorescence quenching of the protein tryptophanyl residues (excitation at 287 nm, emission measured at 332 nm). The spectrofluorometer cuvette contained 2.5 ml of 1 μM β-Lg in the phosphate buffer to which 2.5-μl increments of the ligand solution in ethanol or ethyl ether were added with a micropipette. Dufour et al., (1990) FEBS Lett. 277, 223. […] Cogan et al., (1976) Eur. J. Biochem. 65, 71.
(§2) The titration can also be followed by measuring the increase in vitamin D or cholesterol fluorescence that was due to energy transfer from the tryptophanyl residue. Thus, with excitation at 287 nm, emission was measured at 412 nm for vitamin D or 390 nm for cholesterol.
The titration data can be used to evaluate the equilibrium dissociation constant and the number of binding sites per monomer as has been previously described. Cogan et al., (1976) Eur. J. Biochem. 65, 71; Dufour and Haertle, (1991) Biochim. Biophys. Acta 1079, 316; Wang et al., (1997) J. Dairy Sci. 80, 1047. The linear regression equation
(§3) PT a=(1/n)[RT a/(1-a)]-Kd /n
(§4) is used to calculate n, the number of binding sites per molecule of protein and Kd, the apparent dissociation constant. In this equation, PT is total protein concentration, and RT is total ligand concentration.
Cho et al., (1994) J. Biol. Chem. 269, 11102; Dufour and Haertle, (1991) Biochim. Biophys. Acta 1079, 316; Wang et al., (1997) J. Dairy Sci. 80, 1047. […] Cho et al., (1994) J. Biol. Chem. 269, 11102; Dufour and Haertle, (1991) Biochim. Biophys. Acta 1079, 316; Wang et al., (1997) J. Dairy Sci. 80, 1047.
(§5) Possible binding of vitamin D3 to β-Lg was also investigated by recording the fluorescence emission at 412 nm as a function of the excitation wavelength for vitamin solutions with and without added β-Lg (FIG. 4). […] In a titration experiment, the protein fluorescence at 332 nm with excitation at 287 nm was determined as a function of vitamin D3 concentration (FIG. 3). […] Also, the increase of vitamin D3 fluorescence at 412 nm with excitation at 287 nm for varying vitamin concentrations can be plotted according to Equation [1] as shown in FIG. 5B.
Dufour and Haertle, (1991) Biochim. Biophys. Acta 1079, 316; Wang et al., (1997) J. Dairy Sci. 80, 1047.
The potential binding of both cholesterol and 7-dehydrocholesterol to β-Lg was examined by fluorescence spectroscopy, essentially as described above for vitamin D (Example 3).
The titration data were used to calculate the equilibrium dissociation constant (Kd) and the number of binding sites per β-Lg monomer (n), as described in Example 3.

β-lactoglobulin (β-Lg) [2] = target: T1, β-lactoglobulin (β-Lg); experiment: Fluorescence emission/excitation spectra of β-Lg with and without ligand; format: binding; details: emission 390 nm
Experimental: as §1, §2
Binding of hydrophobic ligands in proximity to Trp19 results in energy transfer between this protein residue and the ligand, and thus changes in the fluorescence emission spectra can be used to follow complex formation. Fluorescence emission spectra of β-Lg with and without bound vitamin D2 that result from excitation of tryptophanyl residues at 287 nm are shown in FIG. 1.
as §5
The potential binding of both cholesterol and 7-dehydrocholesterol to β-Lg was examined by fluorescence spectroscopy, essentially as described above for vitamin D (Example 3). […] A plot of the data that were obtained with varying cholesterol concentrations according to Equation [1] from Example 3 was similar to that for vitamin D3, shown in FIG. 5.
Studies were undertaken to evaluate whether other fat-soluble vitamins bind to β-Lg. Fluorescence emission spectra of β-Lg in the presence and absence of vitamin E, vitamin K1, or vitamin K2 were obtained essentially as described in Example 3.

β-lactoglobulin (β-Lg) [3] = target: T1, β-lactoglobulin (β-Lg); experiment: Fluorescence titration of β-Lg with linoleic acid, conjugated linoleic acid and its methyl ester (Trp19 enhancement); format: binding; details: 10 μM β-Lg
From the text: The titration data can be used to evaluate the equilibrium dissociation constant and the number of binding sites per monomer as has been previously described. […] Biophys. […] The linear regression equation
as §3, §4

β-lactoglobulin (β-Lg) [4] = target: T1, β-lactoglobulin (β-Lg); details: From Frapin et al., J. Protein Chem. 12, 443 (1993), cited from earlier work
[5] = 1 μM β-Lg, 50 mM phosphate pH 7.0, 23 °C, triplicate titrations (vitamin D2: five; ergosterol: single)
[6] = Kd, Table 2, β-Lg titration as in Example 3

Structure (SMILES): CC(C)CCC[C@@H](C)[C@H]1CC[C@H]2C3=CC=C4C[C@@H](O)CC[C@]4(C)[C@H]3CC[C@]12C [7-Dehydrocholesterol, 7-dehydrocholesterol]
Kd (β-lactoglobulin (β-Lg) [1]): 26.7 nM
n (number of binding sites per molecule of protein), Table 1 (β-lactoglobulin (β-Lg) [1]; [5]): 1.65 mol/mol of protein
energy transfer between protein tryptophanyl residues and ligand (β-lactoglobulin (β-Lg) [2]): energy was transferred

Structure (SMILES): CC(C)CCC[C@@H](C)[C@H]1CC[C@H]2[C@@H]3CC=C4C[C@@H](O)CC[C@]4(C)[C@H]3CC[C@]12C [Cholesterol, cholesterol]
Kd (β-lactoglobulin (β-Lg) [1]): 34.9 nM
n (number of binding sites per molecule of protein), Table 1 (β-lactoglobulin (β-Lg) [1]; [5]): 2.36 mol/mol of protein
Kd (β-lactoglobulin (β-Lg) [1]; [6]): 34.9 nM
n, Table 2 (β-lactoglobulin (β-Lg) [1]): 2.4 mol/mol β-LG
energy transfer between protein tryptophanyl residues and ligand (β-lactoglobulin (β-Lg) [2]): energy was transferred

mol bound per mol of protein (Example 4) (β-lactoglobulin (β-Lg) [1]): 2 mol~mol^-1
n (number of binding sites per molecule of protein), Table 1 (β-lactoglobulin (β-Lg) [1]; [5]): 2.02 mol/mol of protein
Kd (β-lactoglobulin (β-Lg) [1]; 1 μM β-Lg, 50 mM phosphate pH 7.0, 23 °C, triplicate titrations (vitamin D2: five; ergosterol: single), read-out: Kd (apparent dissociation constant), Table 1): 6.25 nM
binding affinity, comparative (in words) (β-lactoglobulin (β-Lg) [1]; compared with other ligands of Table 1 or the retinoids): significantly greater
Structure (SMILES): CC(C)[C@@H](C)/C=C/[C@@H](C)[C@H]1CC[C@H]2C3=CC=C4C[C@@H](O)CC[C@]4(C)[C@H]3CC[C@]12C [Ergosterol, ergosterol]

Structure (SMILES): CCCCC/C=C\C/C=C\CCCCCCCC(=O)O [LA, linoleic acid]
Kd (β-lactoglobulin (β-Lg) [3]; 27 °C, read-out: order of Kd (text, Example 7)): ~100 nM
n, Table 3 (β-lactoglobulin (β-Lg) [3]; pH 7, 27 °C, enhancement at 332 nm, excitation 287 nm): 1.01 mol/mol β-LG
Kd (β-lactoglobulin (β-Lg) [3]; pH 7, 27 °C, enhancement at 332 nm, excitation 287 nm, read-out: Kd, Table 3): 143 nM
n, Table 3, from Frapin et al. (β-lactoglobulin (β-Lg) [4]): 0.83 mol/mol β-LG
Kd (β-lactoglobulin (β-Lg) [4]; read-out: Kd, Table 3, from Frapin et al.): 190 nM

Structure (SMILES): CCCCCCCCCCCCCCCC(=O)O [Palmitic acid]
Kd (β-lactoglobulin (β-Lg) [1]; [6]): 490 nM
n, Table 2 (β-lactoglobulin (β-Lg) [1]): 1.2 mol/mol β-LG

Structure (SMILES): CC1=C(/C=C/C(C)=C/C=C/C(C)=C/C(=O)O)C(C)(C)CCC1 [Retinoic acid, retinoic acid]
Kd (β-lactoglobulin (β-Lg) [1]; [6]): 17 nM
n, Table 2 (β-lactoglobulin (β-Lg) [1]): 0.9 mol/mol β-LG

n, Table 2 (β-lactoglobulin (β-Lg) [1]): 1.2 mol/mol β-LG
Structure (SMILES): CCCCCCCCCCCCCCCC(=O)OC/C=C(C)/C=C/C=C(C)/C=C/C1=C(C)CCCC1(C)C [Retinyl palmitate (P), Retinyl palmitate]

n, Table 2 (β-lactoglobulin (β-Lg) [1]): 0.8 mol/mol β-LG
Structure (SMILES): CCCCCCCCCCCCCCCC(=O)OC/C=C(C)/C=C/C=C(C)/C=C/C1=C(C)CCCC1(C)C [Retinyl palmitate (R), Retinyl palmitate]
